Data: patent publication US20040043903A1, “2-Aryl-5-trifluoromethylpyridines” (priority 2000, published 2004)

Columns and labels:
Assay in all cases: post-emergence herbicidal action, greenhouse experiments
[1] = test system: ECHCG; type: in vivo, barnyardgrass
Text: (§1) The culture containers used were plastic pots with loamy sand with approximately 3.0% humus as substrate. The seeds of the test plants were sown separately for each species.
(§2) For the purposes of the post-emergence treatment, the test plants were first grown to a height of 3 to 15 cm, depending on the growth habit, and only then treated with the active ingredients which were suspended or emulsified in water. To this end, the test plants were either sown directly and grown on in the same containers, or else they were first grown separately as seedlings and then transplanted into the experimental containers a few days prior to treatment. The application rate for the post-emergence treatment was 31.3, 15.6, 7.8 and/or 3.9 g of a.s./ha.
(§3) The plants were kept at temperatures of 10-25° C. or 20-35° C., depending on the species. The experimental period extended over 2 to 4 weeks. During this time, the plants were tended, and their response to the individual regimes were evaluated.
(§4) For the evaluation, a scale of 0 to 100 was used. 100 means no emergence of the plants, or complete destruction of at least the aerial parts, and 0 means no damage or normal course of growth.
(§5) The plants used in the greenhouse experiments consisted of the following species: […]

[2] = test system: SETFA; type: in vivo, giant foxtail; details: for Harmful plant/action (post-emergence herbicidal action): scale 0 to 100
Text: as §1
as §2, with “The application rate for the post-emergence treatment was 31.3, 15.6, 7.8 and/or 3.9 g of a.s./ha.” left out
as §3, §4, §5

[3] = test system: BIDPI; type: in vivo, hairy beggarticks; details: for Harmful plant/action (post-emergence herbicidal action): scale 0 to 100
Text: as §1
as §2, with “The application rate for the post-emergence treatment was 31.3, 15.6, 7.8 and/or 3.9 g of a.s./ha.” left out
as §3, §4, §5

[4] = test system: CHEAL; type: in vivo, lambsquarters; details: for Harmful plant/action (post-emergence herbicidal action): scale 0 to 100
Text: as §1, §2, §3, §4, §5

[5] = test system: BRAPL; type: in vivo, alexandergrass
Text: as §1, §2, §3, §4, §5

[6] = 31.3 and 15.6 g of a.s./ha, compared with Comparative Example VA
[7] = application rate 15.6 g/ha a.s.
[8] = application rate 31.3 g/ha a.s.
[9] = 7.8 and 3.9 g of a.s./ha, compared with Comparative Example VB
[10] = 7.8 and 3.9 g of a.s./ha, compared with Comparative Example VC

## COc1cc(-c2ncc(C(F)(F)F)c(C)c2Cl)c(F)cc1Cl [IAa.3, 2-(2-fluoro-4-chloro-5-methoxyphenyl-1-yl)-3-chloro-4-methyl-5-trifluoromethylpyridine]
[1]; [6]
  action against the harmful plant compared with Comparative Example: considerably better action
[1]; application rate 15.6 g/ha a.s., scale 0 to 100
  Harmful plant/action (post-emergence herbicidal action): 90
[1]; application rate 31.3 g/ha a.s., scale 0 to 100 (100 = complete destruction, 0 = no damage)
  Harmful plant/action (post-emergence herbicidal action): 100
[2]; [6]
  action against the harmful plant compared with Comparative Example: considerably better action
[2]; [7]
  Harmful plant/action (post-emergence herbicidal action): 95
[2]; [8]
  Harmful plant/action (post-emergence herbicidal action): 100
[3]; [6]
  action against the harmful plant compared with Comparative Example: considerably better action
[3]; [7]
  Harmful plant/action (post-emergence herbicidal action): 60
[3]; [8]
  Harmful plant/action (post-emergence herbicidal action): 60
[4]; [6]
  action against the harmful plant compared with Comparative Example: considerably better action
[4]; [7]
  Harmful plant/action (post-emergence herbicidal action): 100
[4]; [8]
  Harmful plant/action (post-emergence herbicidal action): 100

## C#CCOc1cc(-c2ncc(C(F)(F)F)c(C)c2Cl)c(F)cc1Cl [IAa.10, 2-(2-Fluoro-4-chloro-5-propargyloxyphenyl)-3-chloro-4-methyl-5-trifluoromethylpyridine]
[1]; [9]
  action against the harmful plant compared with Comparative Example: considerably better action
[1]; application rate 3.9 g/ha a.s., scale 0 to 100
  Harmful plant/action (post-emergence herbicidal action): 70
[1]; application rate 7.8 g/ha a.s., scale 0 to 100
  Harmful plant/action (post-emergence herbicidal action): 85
[2]; [9]
  action against the harmful plant compared with Comparative Example: considerably better action
[2]; application rate 3.9 g/ha a.s.
  Harmful plant/action (post-emergence herbicidal action): 98
[2]; application rate 7.8 g/ha a.s.
  Harmful plant/action (post-emergence herbicidal action): 98
[3]; [9]
  action against the harmful plant compared with Comparative Example: considerably better action
[3]; application rate 3.9 g/ha a.s.
  Harmful plant/action (post-emergence herbicidal action): 100
[3]; application rate 7.8 g/ha a.s.
  Harmful plant/action (post-emergence herbicidal action): 100
[4]; application rate 3.9 g/ha a.s.
  Harmful plant/action (post-emergence herbicidal action): 100
[4]; application rate 7.8 g/ha a.s.
  Harmful plant/action (post-emergence herbicidal action): 100

## CCc1nc2c(Cl)cc(F)c(-c3ncc(C(F)(F)F)c(C)c3Cl)c2o1 [ICe.3, 4-Chloro-7-[3-chloro-4-methyl-5-(trifluoromethyl)-2-pyridinyl]-2-ethyl-6-fluoro-1,3-benzoxazole]
[2]; [10]
  action against the harmful plant compared with Comparative Example: considerably better action
[2]; application rate 3.9 g/ha a.s.
  post-emergence herbicidal action, SETFA: 100
[2]; application rate 7.8 g/ha a.s.
  post-emergence herbicidal action, SETFA: 100
[3]; [10]
  action against the harmful plant compared with Comparative Example: considerably better action
[3]; application rate 3.9 g/ha a.s.
  post-emergence herbicidal action, BIDPI: 100
[3]; application rate 7.8 g/ha a.s.
  post-emergence herbicidal action, BIDPI: 100
[5]; [10]
  action against the harmful plant compared with Comparative Example: considerably better action
[5]; application rate 3.9 g/ha a.s.
  post-emergence herbicidal action, BRAPL: 80
[5]; application rate 7.8 g/ha a.s.
  post-emergence herbicidal action, BRAPL: 90

## CCc1nc2c(Cl)cc(F)c(-c3ncc(C(F)(F)F)cc3Cl)c2o1 [VC, reference compound]
[2]; application rate 3.9 g/ha a.s.
  post-emergence herbicidal action, SETFA: 90
[2]; application rate 7.8 g/ha a.s.
  post-emergence herbicidal action, SETFA: 95
[3]; application rate 3.9 g/ha a.s.
  post-emergence herbicidal action, BIDPI: 50
[3]; application rate 7.8 g/ha a.s.
  post-emergence herbicidal action, BIDPI: 55
[5]; application rate 3.9 g/ha a.s.
  post-emergence herbicidal action, BRAPL: 40
[5]; application rate 7.8 g/ha a.s.
  post-emergence herbicidal action, BRAPL: 55

## C#CCN1C(=O)COc2cc(F)c(-c3ncc(C(F)(F)F)cc3Cl)cc21 [VD, reference compound]
[2]; application rate 1.9 g/ha a.s.
  post-emergence herbicidal action, SETFA: 60
[2]; application rate 3.9 g/ha a.s.
  post-emergence herbicidal action, SETFA: 90
[3]; application rate 1.9 g/ha a.s.
  post-emergence herbicidal action, BIDPI: 50
[3]; application rate 3.9 g/ha a.s.
  post-emergence herbicidal action, BIDPI: 55
